# Results published in patent publication US20260055121A1, “TYK2 INHIBITORS AND USES THEREOF” (Sudo Biosciences Limited, priority 2022, published 2026).
# Columns and labels:
# TYK2 Pseudokinase (JH2) [1] = biological target: T1, TYK2 Pseudokinase (JH2) (Homo sapiens, UniProt P29597); experiment: HEK-Blue IL-23 reporter assay (STAT3-inducible SEAP) for profiling TYK2 pseudokinase (JH2) inhibition; assay type: cell-based; conditions: HEK-Blue IL-23 cells, 10 ng/mL human recombinant IL-23, SEAP readout; read-out: IL23
# T1 construct: HEK-Blue™ IL-23 and IFNα/0 cells with a stably-integrated cytokine receptor and STAT3 or STAT1; endogenous in cells; host or cells: HEK-Blue IL-23 and HEK-Blue IFNα/β reporter cells
# Description: (§1) HEK-Blue™ IL-23 and IFNα/0 cells with a stably-integrated cytokine receptor and STAT3 or STAT1 express STAT-inducible secreted embryonic alkaline phosphatase (SEAP) reporter gene upon cytokine stimulation. These cells are plated in DMEM (Gibco) containing 10% heat-inactivated FBS (Gibco) and 100 U/mL PenStrep (Gibco) at 37° C. under 5% CO2 conditions for 20-22 hours. The cells are then pretreated with serially diluted test compounds for 60 min prior to stimulation with either 10 ng/mL human recombinant IL-23 (Miltenyl Biotech) or 1 ng/mL human recombinant IFNα (InvivoGen) for 22-24 hours for IL-23 or 16-18 h for IFNα. SEAP induction is measured using the QUANTI Blue™ Solution (InvivoGen) according to the manufacturer's instructions.
# TYK2 Pseudokinase (JH2) [2] = biological target: T1, TYK2 Pseudokinase (JH2); experiment: HEK-Blue IFNα/β reporter assay (STAT1-inducible SEAP) for profiling TYK2 pseudokinase (JH2) inhibition; assay type: cell-based; conditions: HEK-Blue IFNα/β cells, 1 ng/mL human recombinant IFNα, SEAP readout
# Description: as §1
# IL-2 = experiment: HEK-Blue IL-2 reporter assay (STAT5-inducible SEAP) for determining selectivity; assay type: cell-based; conditions: HEK-Blue IL-2 reporter cells, 4 ng/mL human recombinant IL-2, SEAP readout
# Description: (§2) HEK-Blue™ IL-2 and IFNγ reporter cells with a stably-integrated cytokine receptor and STAT5 or STAT1 express STAT-inducible secreted embryonic alkaline phosphatase (SEAP) reporter gene upon cytokine stimulation. These cells were plated in DMEM (Gibco) containing 10% heat-inactivated FBS (Gibco) and 100 U/mL PenStrep (Gibco) at 37° C. under 5% CO2 conditions for 20-22 hours. The cells were then pretreated with serially diluted test compounds for 60 min prior to stimulation with either 4 ng/mL human recombinant TL-2 (Miltenyl Biotech) or 50 ng/mL human recombinant IFNγ (InvivoGen) for 24 hours. SEAP induction was measured using the QUANTI-Blue™ Solution (InvivoGen) according to the manufacturer's instructions.
# IFN-γ = experiment: HEK-Blue IFNγ reporter assay (STAT1-inducible SEAP) for determining selectivity; assay type: cell-based; conditions: HEK-Blue IFNγ reporter cells, 50 ng/mL human recombinant IFNγ, SEAP readout
# Description: as §2
# JAK1-JH1 = biological target: T2, JAK1-JH1 (Homo sapiens, UniProt P23458); experiment: HTRF-based selectivity assay, JAK1 catalytic domain; assay type: biochemical; conditions: kinase domain (JH1), 21.43 μM ATP
# T2 construct: recombinant purified His or GST-tagged catalytic domain for each enzyme; made in house
# Description: The ability of compounds to inhibit the activity of JAK1, JAK2, JAK3 and TYK2 is measured using a recombinant purified His or GST-tagged catalytic domain for each enzyme (JAK1, JAK2 and TYK2 are generated in-house; JAK3 was purchased from Carna biosciences, Cat #08-046) in an HTRF format biochemical assay. The reactions employs a commercial peptide substrate from Cisbio (Cat #62TK0PEC). The basic assay protocol is as follows: first, 2.5 μL of diluted compounds (4×) in DMSO are dispensed into a 384-well Optiplate. Next, 2.5 μL of enzyme (final concentrations for enzymes are: TYK2- 700 ng/mL, JAK1- 80.6 ng/mL, JAK2- 2.1 ng/mL and JAK3- 171.8 ng/mL) is added and incubated at RT for 5-20 min. Finally, 5 μl of mixture of 2×ATP [Final concentration 20 μM for TYK2, 21.43 μM for JAK1, 14.7 μM for JAK2 and 2.12 μM for JAK3]^+2× Substrate [Final concentration 217 nM for TYK2, 454.7 nM for JAK1, 200 nM for JAK2 and 257.4 nM for JAK3] is added to 384 well Optiplate. Composition of Kinase assay buffer used in the assay is as follows: HEPES 50 mM, EGTA 1 mM, MgCl2 10 mM, DTT 2 mM, Tween-20 0.01% and water. Then the plates are shaken and then incubated at 26.5° C. for 60 min.
# T1 sequence (P29597 whole entry): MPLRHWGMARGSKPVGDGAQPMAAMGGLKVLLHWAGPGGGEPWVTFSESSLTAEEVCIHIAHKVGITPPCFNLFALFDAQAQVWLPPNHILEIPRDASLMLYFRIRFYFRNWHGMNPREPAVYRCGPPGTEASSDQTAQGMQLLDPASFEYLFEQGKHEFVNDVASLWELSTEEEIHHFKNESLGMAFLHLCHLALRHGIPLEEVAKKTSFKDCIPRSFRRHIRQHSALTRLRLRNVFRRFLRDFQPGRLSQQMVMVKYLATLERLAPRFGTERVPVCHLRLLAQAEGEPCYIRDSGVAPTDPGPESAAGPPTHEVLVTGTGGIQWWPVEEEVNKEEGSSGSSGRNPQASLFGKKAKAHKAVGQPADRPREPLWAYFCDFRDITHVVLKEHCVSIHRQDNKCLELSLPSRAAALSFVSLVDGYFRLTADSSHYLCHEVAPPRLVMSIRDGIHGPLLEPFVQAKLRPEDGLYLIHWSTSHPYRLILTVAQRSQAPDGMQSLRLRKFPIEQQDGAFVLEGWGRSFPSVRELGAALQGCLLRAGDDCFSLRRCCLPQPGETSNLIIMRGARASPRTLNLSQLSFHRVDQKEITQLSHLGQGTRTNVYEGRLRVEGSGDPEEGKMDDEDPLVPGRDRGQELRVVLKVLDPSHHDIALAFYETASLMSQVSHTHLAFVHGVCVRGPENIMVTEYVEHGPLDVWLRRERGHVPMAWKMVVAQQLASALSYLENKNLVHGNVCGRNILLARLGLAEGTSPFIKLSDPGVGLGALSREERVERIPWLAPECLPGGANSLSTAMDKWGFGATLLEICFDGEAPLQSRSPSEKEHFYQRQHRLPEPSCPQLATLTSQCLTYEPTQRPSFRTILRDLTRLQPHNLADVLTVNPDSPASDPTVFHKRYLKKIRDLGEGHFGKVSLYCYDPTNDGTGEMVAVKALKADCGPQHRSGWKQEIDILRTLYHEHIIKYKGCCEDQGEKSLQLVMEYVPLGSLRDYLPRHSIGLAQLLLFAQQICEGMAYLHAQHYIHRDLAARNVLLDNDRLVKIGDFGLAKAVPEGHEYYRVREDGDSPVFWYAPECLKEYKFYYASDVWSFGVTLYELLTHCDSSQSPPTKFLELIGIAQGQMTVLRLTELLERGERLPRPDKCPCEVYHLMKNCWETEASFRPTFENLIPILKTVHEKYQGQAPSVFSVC
# T2 sequence (P23458 875-1153 limits assumed): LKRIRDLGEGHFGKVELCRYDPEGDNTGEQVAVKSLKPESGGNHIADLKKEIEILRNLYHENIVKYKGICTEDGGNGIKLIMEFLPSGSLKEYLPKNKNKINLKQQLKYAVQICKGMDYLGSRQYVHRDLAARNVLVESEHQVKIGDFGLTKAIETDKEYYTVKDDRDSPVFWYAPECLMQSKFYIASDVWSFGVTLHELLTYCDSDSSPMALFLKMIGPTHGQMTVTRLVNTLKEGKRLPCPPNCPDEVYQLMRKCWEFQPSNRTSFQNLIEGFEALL
Compound,IC50 (TYK2 Pseudokinase (JH2) [1]) [nM],IC50 (TYK2 Pseudokinase (JH2) [2]) [nM],IC50 (IL-2) [nM],IC50 (IFN-γ) [nM],IC50 (JAK1-JH1) [nM]
"CCONC(=O)c1cnc(NC(=O)C2CC2)cc1Nc1cccc2c1N(C)[C@@H](C)c1nc(C)nn1-2 [Compound 9, (S)-6-(cyclopropanecarboxamido)-N-ethoxy-4-((2,4,5-trimethyl-4,5-dihydro-[1,2,4]triazolo[1,5-a]quinoxalin-6-yl)amino)nicotinamide]",< 30,< 30,,,
"Cc1nc2n(n1)-c1cccc(Nc3cc(NC(=O)C4CC4)nc4[nH]n(C)c(=O)c34)c1N(C)[C@H]2C [Compound 3, (S)—N-(2-methyl-3-oxo-4-((2,4,5-trimethyl-4,5-dihydro-[1,2,4]triazolo[1,5-a]quinoxalin-6-yl)amino)-2,3-dihydro-1H-pyrazolo[3,4-b]pyridin-6-yl)cyclopropanecarboxamide]",< 30,30 to 300,> 1000,> 1000,
"CCONC(=O)c1nnc(NC(=O)C2CC2)cc1Nc1cccc2c1N(C)[C@@H](C)c1nc(C)nn1-2 [Compound 13, (S)-6-(cyclopropanecarboxamido)-N-ethoxy-4-((2,4,5-trimethyl-4,5-dihydro-[1,2,4]triazolo[1,5-a]quinoxalin-6-yl)amino)pyridazine-3-carboxamide]",< 30,30 to 300,,,
"CCONC(=O)c1nnc(Nc2ccc(F)cn2)cc1Nc1cccc2c1N(C)[C@@H](C)c1nc(C)nn1-2 [Compound 15, (S)—N-ethoxy-6-((5-fluoropyridin-2-yl)amino)-4-((2,4,5-trimethyl-4,5-dihydro-[1,2,4]triazolo[1,5-a]quinoxalin-6-yl)amino)pyridazine-3-carboxamide]",< 30,< 30,,,
"[2H]C([2H])([2H])NC(=O)c1c(Nc2cccc3c2N(C)[C@@H](C)c2nc(C)nn2-3)cc(NC(=O)C2CC2)nc1N [Compound 4, (S)-2-amino-6-(cyclopropanecarboxamido)-N-(methyl-d3)-4-((2,4,5-trimethyl-4,5-dihydro-[1,2,4]triazolo[1,5-a]quinoxalin-6-yl)amino)nicotinamide]",> 1000,> 1000,,,
"CNC(=O)c1cnc2[nH]ccc2c1Nc1cccc2c1N(C)CCn1cnnc1-2 [Compound 6, N-methyl-4-((7-methyl-6,7-dihydro-5H-benzo[f][1,2,4]triazolo[4,3-d][1,4]diazepin-8-yl)amino)-1H-pyrrolo[2,3-b]pyridine-5-carboxamide]",> 1000,> 1000,,,
"CONC(=O)c1nnc(Nc2cc(C)nc(C)n2)cc1Nc1cccc2c1N(C)[C@@H](C)c1nc(C)nn1-2 [Compound 12, (S)-6-((2,6-dimethylpyrimidin-4-yl)amino)-N-methoxy-4-((2,4,5-trimethyl-4,5-dihydro-[1,2,4]triazolo[1,5-a]quinoxalin-6-yl)amino)pyridazine-3-carboxamide]",< 30,< 30,,,
"CONC(=O)c1nnc(Nc2ccc(F)cn2)cc1Nc1cccc2c1N(C)[C@@H](C)c1nc(C)nn1-2 [Compound 11, (S)-6-((5-fluoropyridin-2-yl)amino)-N-methoxy-4-((2,4,5-trimethyl-4,5-dihydro-[1,2,4]triazolo[1,5-a]quinoxalin-6-yl)amino)pyridazine-3-carboxamide]",< 30,< 30,,,
"Cn1cc2c(n1)-c1cccc(Nc3cc(NC(=O)C4CC4)nc4[nH]n(C)c(=O)c34)c1OC2 [Compound 1, N-(2-methyl-4-((2-methyl-2,4-dihydrochromeno[4,3-c]pyrazol-6-yl)amino)-3-oxo-2,3-dihydro-1H-pyrazolo[3,4-b]pyridin-6-yl)cyclopropanecarboxamide]",300 to 1000,,,,> 1000
"CNC(=O)c1cnc2[nH]ccc2c1Nc1cccc2c1N(C)Cc1cn(C)nc1-2 [Compound 7, 4-((2,5-dimethyl-4,5-dihydro-2H-pyrazolo[4,3-c]quinolin-6-yl)amino)-N-methyl-1H-pyrrolo[2,3-b]pyridine-5-carboxamide]",> 1000,> 1000,,,
"CONC(=O)c1cnc(NC(=O)C2CC2)cc1Nc1cccc2c1N(C)[C@@H](C)c1nc(C)nn1-2 [Compound 8, (S)-6-(cyclopropanecarboxamido)-N-methoxy-4-((2,4,5-trimethyl-4,5-dihydro-[1,2,4]triazolo[1,5-a]quinoxalin-6-yl)amino)nicotinamide]",< 30,30 to 300,,,
"CN1Cc2cn(C)nc2-c2cccc(Nc3cc(NC(=O)C4CC4)nc4[nH]n(C)c(=O)c34)c21 [Compound 2, N-(4-((2,5-dimethyl-4,5-dihydro-2H-pyrazolo[4,3-c]quinolin-6-yl)amino)-2-methyl-3-oxo-2,3-dihydro-1H-pyrazolo[3,4-b]pyridin-6-yl)cyclopropanecarboxamide]",< 30,< 30,,,> 1000
"CCONC(=O)c1nnc(NC(=O)C2CC2)cc1Nc1nccc2c1N(C)[C@@H](C)c1nn(C)nc1-2 (single isomer, unassigned) [Compound 16]",< 30,< 30,,,
"CONC(=O)c1nnc(NC(=O)C2CC2)cc1Nc1cccc2c1N(C)[C@@H](C)c1nc(C)nn1-2 [Compound 10, (S)-6-(cyclopropanecarboxamido)-N-methoxy-4-((2,4,5-trimethyl-4,5-dihydro-[1,2,4]triazolo[1,5-a]quinoxalin-6-yl)amino)pyridazine-3-carboxamide]",< 30,30 to 300,,,
"CCONC(=O)c1nnc(Nc2cc(C)nc(C)n2)cc1Nc1cccc2c1N(C)[C@@H](C)c1nc(C)nn1-2 [Compound 14, (S)-6-((2,6-dimethylpyrimidin-4-yl)amino)-N-ethoxy-4-((2,4,5-trimethyl-4,5-dihydro-[1,2,4]triazolo[1,5-a]quinoxalin-6-yl)amino)pyridazine-3-carboxamide]",< 30,< 30,,,
